± gives the standard deviation of the averaged measurements.
Tests used:
Assay in all cases: cell viability with growth factor relative to same drug with BSA mock; higher = growth factor protects cells from drug (more viable cells)
Settings in all cases: treatment time: 6 days
[1] = system: Kelly
Method: (§1)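 Six neuroblastoma cell lines were treated with a kinase inhibitor or vincristine at a fixed dose (70–90% lethal) plus a growth factor (100 ng/ml) or 0.1% BSA mock for 72 h. Drugs and growth factors were then renewed for another 72 h (6 days total). Viability was read by XTT in triplicate and normalised to the same drug plus BSA (=100%).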

[2] = system: LAN-1
Method: as §1

[3] = system: SH-SY5Y
Method: as §1

[4] = system: SK-N-AS
Method: as §1

[5] = system: SK-N-BE
Method: as §1

[6] = system: SK-N-SH
Method: as §1

CNC(=O)c1ccccc1Sc1ccc2c(/C=C/c3ccccn3)n[nH]c2c1 [axitinib]
cell viability with growth factor [%]
Settings | added growth factor (100 ng/ml): BDNF | added growth factor (100 ng/ml): EPO | added growth factor (100 ng/ml): HGF | added growth factor (100 ng/ml): IGF-1 | added growth factor (100 ng/ml): NGF | added growth factor (100 ng/ml): SCF
[1], drug concentration: 10 uM | 143 ± 2 | 177 ± 19 | 94.1 ± 20 | 57.3 ± 21 | 148 ± 2.5 | 106 ± 12
[2], drug concentration: 5 uM | 112 ± 12 | 173 ± 13 | 93 ± 28 | 98.5 ± 17 | 159 ± 30 | 117 ± 8.8
[3], drug concentration: 2.5 uM | 104 ± 15 | 138 ± 23 | 95.7 ± 17 | 80.7 ± 16 | 137 ± 12 | 107 ± 2.2
[4], drug concentration: 5 uM | 95.7 ± 6.5 | 101 ± 7.1 | 85.5 ± 27 | 48.7 ± 2.5 | 96.1 ± 8 | 99 ± 6.2
[5], drug concentration: 5 uM | 103 ± 34 | 142 ± 8.8 | 100 ± 21 | 255 ± 41 | 122 ± 30 | 149 ± 32
[6], drug concentration: 10 uM | 109.9 ± 0.6 | 177 ± 27 | 96.8 ± 21 | 60 ± 5.2 | 118 ± 6.3 | 83.5 ± 19

Cc1ccc(NC(=O)c2ccc(CN3CCN(C)CC3)cc2)cc1Nc1nccc(-c2cccnc2)n1 [imatinib]
cell viability with growth factor [%]
Settings | added growth factor (100 ng/ml): BDNF | added growth factor (100 ng/ml): EPO | added growth factor (100 ng/ml): HGF | added growth factor (100 ng/ml): IGF-1 | added growth factor (100 ng/ml): NGF | added growth factor (100 ng/ml): SCF
[1], drug concentration: 25 uM | 165 ± 36 | 184 ± 21 | 167 ± 46 | 145 ± 15 | 125 ± 3.2 | 134 ± 11
[2], drug concentration: 20 uM | 101 ± 4.4 | 121 ± 7.4 | 86.4 ± 27 | 117 ± 5.8 | 135 ± 18 | 99.4 ± 9.5
[3], drug concentration: 25 uM | 94.8 ± 19 | 166 ± 25 | 106 ± 12 | 99.5 ± 3.6 | 207 ± 39 | 111 ± 7.6
[4], drug concentration: 20 uM | 104 ± 18 | 103 ± 22 | 123 ± 46 | 134 ± 24 | 111 ± 5.8 | 112 ± 19
[5], drug concentration: 25 uM | 103 ± 11 | 217 ± 32 | 103 ± 17 | 124 ± 5.7 | 179 ± 16 | 76.9 ± 2.5
[6], drug concentration: 25 uM | 106 ± 16 | 121 ± 10 | 143 ± 32 | 110 ± 36 | 110 ± 15 | 98.2 ± 18

Cc1nc(Nc2ncc(C(=O)Nc3c(C)cccc3Cl)s2)cc(N2CCN(CCO)CC2)n1 [dasatinib]
cell viability with growth factor [%]
Settings | added growth factor (100 ng/ml): BDNF | added growth factor (100 ng/ml): EPO | added growth factor (100 ng/ml): HGF | added growth factor (100 ng/ml): IGF-1 | added growth factor (100 ng/ml): NGF | added growth factor (100 ng/ml): SCF
[1], drug concentration: 500 nM | 86.8 ± 2.7 | 238 ± 40 | 198 ± 9.8 | 292 ± 36 | 164 ± 34 | 95.8 ± 9.8
[2], drug concentration: 5 nM | 93.1 ± 4.4 | 228 ± 30 | 129 ± 14 | 138 ± 19 | 273 ± 23 | 97.6 ± 14
[3], drug concentration: 25 nM | 131 ± 13 | 320 ± 21 | 97 ± 28 | 135 ± 13 | 217 ± 38 | 169 ± 6.2
[4], drug concentration: 50 nM | 117 ± 16 | 108 ± 8.2 | 134 ± 14 | 235 ± 27 | 104 ± 7.1 | 82.7 ± 13
[5], drug concentration: 500 nM | 90.9 ± 20 | 130 ± 5.7 | 111 ± 27 | 185 ± 19 | 83.6 ± 3.1 | 146 ± 12
[6], drug concentration: 500 nM | 99.7 ± 1 | 126 ± 5.9 | 151 ± 4.3 | 205 ± 33 | 116 ± 15 | 113 ± 22

COc1cc2nccc(Oc3ccc(NC(=O)C4(C(=O)Nc5ccc(F)cc5)CC4)cc3)c2cc1OC [cabozantinib]
cell viability with growth factor [%]
Settings | added growth factor (100 ng/ml): BDNF | added growth factor (100 ng/ml): EPO | added growth factor (100 ng/ml): HGF | added growth factor (100 ng/ml): IGF-1 | added growth factor (100 ng/ml): NGF | added growth factor (100 ng/ml): SCF
[1], drug concentration: 5 uM | 109 ± 1.2 | 118 ± 3.6 | 84.5 ± 11 | 73 ± 30 | 133 ± 21 | 101 ± 8.5
[2], drug concentration: 5 uM | 125 ± 8.8 | 160 ± 35 | 168 ± 11 | 123 ± 11 | 161 ± 27 | 93.5 ± 13
[3], drug concentration: 2.5 uM | 114 ± 22 | 127 ± 21 | 151 ± 9.4 | 139 ± 33 | 183 ± 25 | 81.1 ± 16
[4], drug concentration: 7.5 uM | 124 ± 15 | 99 ± 3.2 | 108 ± 12 | 84.9 ± 18 | 95.9 ± 3.2 | 96.9 ± 10
[5], drug concentration: 7.5 uM | 278 ± 42 | 200 ± 25 | 248 ± 48 | 316 ± 30 | 191 ± 8.9 | 251 ± 44
[6], drug concentration: 5 uM | 153 ± 14 | 110.1 ± 0.79 | 94.5 ± 8.7 | 59.6 ± 6.7 | 153 ± 3.5 | 124 ± 13

C[C@@H](Oc1cc(-c2cnn(C3CCNCC3)c2)cnc1N)c1c(Cl)ccc(F)c1Cl [crizotinib]
cell viability with growth factor [%]
Settings | added growth factor (100 ng/ml): BDNF | added growth factor (100 ng/ml): EPO | added growth factor (100 ng/ml): HGF | added growth factor (100 ng/ml): IGF-1 | added growth factor (100 ng/ml): NGF | added growth factor (100 ng/ml): SCF
[1], drug concentration: 1 uM | 352 ± 40 | 365 ± 77 | 112 ± 35 | 176 ± 5.4 | 300 ± 15 | 107 ± 25
[2], drug concentration: 2.5 uM | 232 ± 53 | 241 ± 35 | 227 ± 46 | 186 ± 23 | 359 ± 36 | 142 ± 20
[3], drug concentration: 2.5 uM | 118 ± 23 | 137 ± 13 | 174 ± 30 | 101 ± 24 | 184 ± 51 | 120 ± 11
[4], drug concentration: 5 uM | 103 ± 4.9 | 89.6 ± 9.9 | 106 ± 51 | 130 ± 2.1 | 73.9 ± 16 | 106 ± 19
[5], drug concentration: 5 uM | 422 ± 55 | 123 ± 85 | 88.9 ± 4.9 | 291 ± 44 | 173 ± 82 | 121 ± 22
[6], drug concentration: 1 uM | 122 ± 3.9 | 111 ± 5.7 | 82.7 ± 14 | 90.8 ± 22 | 210 ± 22 | 95.3 ± 19

CC[C@]1(O)C[C@H]2CN(CCc3c([nH]c4ccccc34)[C@@](C(=O)OC)(c3cc4c(cc3OC)N(C=O)[C@H]3[C@@](O)(C(=O)OC)[C@H](OC(C)=O)[C@]5(CC)C=CCN6CC[C@]43[C@@H]65)C2)C1 [vincristine]
cell viability with growth factor [%]
Settings | added growth factor (100 ng/ml): BDNF | added growth factor (100 ng/ml): EPO | added growth factor (100 ng/ml): HGF | added growth factor (100 ng/ml): IGF-1 | added growth factor (100 ng/ml): NGF | added growth factor (100 ng/ml): SCF
[1], drug concentration: 5 nM | 86.8 ± 27 | 89.5 ± 19 | 95.4 ± 11 | 200 ± 22 | 70.2 ± 8 | 99.2 ± 12
[2], drug concentration: 5 nM | 84.5 ± 2.9 | 151 ± 11 | 116 ± 17 | 99.3 ± 29 | 92.4 ± 13 | 116 ± 28
[3], drug concentration: 25 nM | 110 ± 12 | 149 ± 18 | 108 ± 23 | 110 ± 20 | 208 ± 19 | 97.4 ± 16
[4], drug concentration: 5 nM | 95 ± 8.7 | 78.5 ± 19 | 124 ± 7.1 | 219 ± 6.4 | 88.2 ± 6.7 | 97.3 ± 13
[5], drug concentration: 20 nM | 98 ± 21 | 171 ± 42 | 97.5 ± 6 | 116 ± 24 | 137 ± 5.2 | 128 ± 12
[6], drug concentration: 5 nM | 98 ± 4.7 | 152 ± 6.7 | 97.7 ± 12 | 142 ± 9.5 | 129 ± 13 | 88.1 ± 8.1

From the supplement of paper PMC8566230
